Experimental data published in patent US7638521B2, “3-guanidinocarbonyl-1-heteroaryl-indole derivatives, preparation process, their use as medicaments, and pharmaceutical compositions comprising them” (sanofi-aventis Deutschland GmbH, priority 2002, dated 2009).
Structures can show the parent of a compound that is named as a salt.

How the values were obtained:
[1] = molecular target: T1, NHE-1 subtype (Homo sapiens, UniProt P19634); assay: NHE inhibition FLIPR test (intracellular pH recovery, BCECF) in transfected LAP-1 cells; type: cell-based; conditions: transfected LAP-1 cell line expressing NHE-1 subtype, pHi recovery after acidification, read-out: IC50 (NHE1)
T1 construct: expressed in transfected cells; host or cells: LAP-1 (parental line without endogenous NHE activity), G418 selection
T1 sequence (P19634 whole entry): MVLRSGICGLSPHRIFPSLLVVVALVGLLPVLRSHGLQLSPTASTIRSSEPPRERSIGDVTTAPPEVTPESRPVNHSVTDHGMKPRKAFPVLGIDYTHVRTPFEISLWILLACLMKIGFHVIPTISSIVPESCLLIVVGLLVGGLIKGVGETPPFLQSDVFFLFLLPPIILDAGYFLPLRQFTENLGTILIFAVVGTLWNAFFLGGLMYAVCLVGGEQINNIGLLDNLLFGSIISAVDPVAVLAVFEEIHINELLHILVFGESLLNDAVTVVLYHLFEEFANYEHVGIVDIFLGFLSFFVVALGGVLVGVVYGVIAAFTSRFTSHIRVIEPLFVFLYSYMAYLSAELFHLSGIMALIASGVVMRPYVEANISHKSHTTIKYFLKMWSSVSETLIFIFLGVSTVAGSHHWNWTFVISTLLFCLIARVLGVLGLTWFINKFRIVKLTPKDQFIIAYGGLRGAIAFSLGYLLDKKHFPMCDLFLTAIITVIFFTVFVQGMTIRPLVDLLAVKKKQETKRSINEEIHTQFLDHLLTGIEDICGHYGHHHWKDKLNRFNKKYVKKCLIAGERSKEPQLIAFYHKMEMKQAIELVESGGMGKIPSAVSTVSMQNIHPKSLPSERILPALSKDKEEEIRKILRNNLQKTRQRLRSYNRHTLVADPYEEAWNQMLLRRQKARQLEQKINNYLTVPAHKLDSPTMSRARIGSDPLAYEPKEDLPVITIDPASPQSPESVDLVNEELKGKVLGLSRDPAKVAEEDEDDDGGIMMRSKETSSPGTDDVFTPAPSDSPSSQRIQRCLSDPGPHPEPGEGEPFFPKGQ
Procedure: The NHE inhibitory activities (IC50 values) of the compounds according to the invention were determined by a FLIPR test. The test is performed in the FLIPR (Fluorescent Imaging Plate Reader) equipped with clear-bottomed and black-walled 96-well microtitration plates. […] The growth medium for the transfected cells (Iscove+10% foetal calf serum) also comprises G418 as selection antibiotic to ensure the presence of transfected sequences. The actual test begins by eliminating the growth medium and adding 100 μl of loading buffer per well (5 μM of BCECF-AM [2′,7′-bis(2-carboxyethyl)-5-(6)-carboxyfluoresceine acetoxymethyl ester] in 20 mM of NH4Cl, 115 mM of choline chloride, 1 mM of CaCl2, 5 mM of KCl, 20 mM of HEPES and 5 mM of glucose; pH 7.4 (adjusted with KOH). The cells are then incubated for 20 minutes at 37° C. This incubation results in the loading of the fluorescent dye into the cells, the fluorescence intensity of which depends on the pHi, and on the NH4Cl, which results in a slight basification of the cells. The precursor BCECF-AM, a non-fluorescent dye, is, as an ester, capable of crossing the membrane. The actual dye, which is incapable of crossing the membrane, is released inside the cell by esterases. After this 20-minute incubation, the loading buffer, which comprises NH4Cl and free BCECF-AM, is removed by washing three times in the cell washing device (Tecan Columbus), each wash being performed with 400 μl of washing buffer (133.8 mM of choline chloride, 4.7 mM of KCl, 1.25 mM of MgCl2, 1.25 mM of CaCl2, 0.97 mM of K2HPO4, 0.23 mM of KH2PO4, 5 mM of HEPES and 5 mM of glucose; pH 7.4 (adjusted with KOH)). The residual volume remaining in the wells is 90 μl (possibly between 50 and 125 μl). This washing step removes the free BCECF-AM and results in an intracellular acidification (pHi of 6.3-6.4) due to the removal of the external ammonium ions. As the equilibrium of the intracellular ammonium with the aqueous ammonia and the protons, by removal of the extracellular ammonium and by the subsequent immediate crossing of the aqueous ammonia across the cell membrane, is disrupted, the washing process results in intracellular protons remaining, which is the cause of the intracellular acidification. This acidification can result finally in the death of the cells if it lasts long enough. It is important here for the washing buffer to be free of sodium (<1 mM), otherwise the extracellular sodium ions would result in an immediate increase in the pHi on account of the activity of the cloned NHE isoforms. It is also important for all the buffers used (loading buffer, washing buffer and regeneration buffer) not to contain any HCO3-ions, otherwise the presence of bicarbonate would result in the activation of bicarbonate-dependent systems that disrupt the pHi regulation, which systems are contained in the LAP-1 parental cell line. The microtiter plates containing acidified cells are then transferred (up to 20 minutes after the acidification) to the FLIPR. In the FLIPR, the intracellular fluorescent dye is activated with light of a wavelength of 488 nm, which is generated by an argon laser, and the measuring parameters (laser power, illumination time and diaphragm of the […] camera integrated into the FLIPR) are chosen such that the average value of the fluorescent signal per well is between 30,000 and 35,000 relative fluorescence units. The actual measurement in the FLIPR starts with a photograph being taken by the CCD camera every two seconds under software control. After 10 seconds, the increase in the intracellular pH is initiated by adding 90 μl of regeneration buffer (133.8 mM of NaCl, 4.7 mM of KCl, 1.25 mM of MgCl2, 1.25 mM of CaCl2, 0.97 mM of K2HPO4, 0.23 mM of KH2PO4, 10 mM of HEPES and 5 mM of glucose; pH 7.4 (adjusted with NaOH)) using a 96-well pipette device incorporated into the FLIPR. Some wells, to which is added pure regeneration buffer, serve as positive controls (100% NHE activity). […]

An IC50 [1] of 240 nM and a melting point of 266 °C were found for COc1ccc2c(-n3cc(C(=O)NC(=N)N)c4ccccc43)ccnc2c1.Cl [Example 6, 3-Guanidinocarbonyl-1-(7-methoxyquinol-4-yl)-1H-indole hydrochloride] in this work.

An IC50 [1] of 120 nM and a melting point of 266 °C were found for COc1ccc2nccc(-n3cc(C(=O)NC(=N)N)c4ccccc43)c2c1.Cl [Example 5, 3-Guanidinocarbonyl-1-(6-methoxyquinol-4-yl)-1H-indole hydrochloride] in this work.

An IC50 [1] of 7.2 nM was found for Cc1cc(-n2cc(C(=O)N=C(N)N)c3ccccc32)c2ccccc2n1 [Example 8, N-[1-(2-Methyl-quinolin-4-yl)-1H-indole-3-carbonyl]-guanidine trifluoroacetate] in this work.

An IC50 [1] of 3230 nM was found for COc1ccc2c(c1)c(C(=O)N=C(N)N)c(C)n2-c1ccnc2cc(Cl)ccc12 [Example 10, N-[1-(7-Chloro-quinolin-4-yl)-5-methoxy-2-methyl-1H-indole-3-carbonyl]-guanidine trifluoroacetate] in this work.

An IC50 [1] of 1.2 nM and a melting point of 244 °C were found for Cl.Cn1ccc2c(-n3cc(C(=O)NC(=N)N)c4ccccc43)ncnc21 [Example 7, 3-Guanidinocarbonyl-1-(7-methyl-7H-pyrrolo[2,3-d]pyrimidin-4-yl)-1H-indole hydrochloride] in this work.

An IC50 [1] of 2.5 nM was found for NC(N)=NC(=O)c1cn(-c2ccnc3c(F)cccc23)c2ccccc12 [Example 13, N-[1-(8-Fluoro-quinolin-4-yl)-1H-indole-3-carbonyl]-guanidine trifluoroacetate] in this work.

An IC50 [1] of 250 nM was found for NC(N)=NC(=O)c1cn(-c2ccnc3cc(Cl)ccc23)c2ccccc12 [Example 9, N-[1-(7-Chloro-quinolin-4-yl)-1H-indole-3-carbonyl]-guanidine trifluoroacetate] in this work.

An IC50 [1] of 2640 nM was found for COc1ccc2c(c1)c(C(=O)N=C(N)N)c(C)n2-c1ccnc2ccc(F)cc12 [Example 12, N-[1-(6-Fluoro-quinolin-4-yl)-5-methoxy-2-methyl-1H-indole-3-carbonyl]-guanidine trifluoroacetate] in this work.

An IC50 [1] of 220 nM and a melting point of 260 °C were found for Cl.N=C(N)NC(=O)c1cn(-c2ccnc3ccc(C(F)(F)F)cc23)c2ccccc12 [Example 2, 3-Guanidinocarbonyl-1-(6-(trifluoromethyl)quinol-4-yl)-1H-indole hydrochloride] in this work.

An IC50 [1] of 2560 nM was found for COc1ccc2c(c1)c(C(=O)N=C(N)N)c(C)n2-c1ncnc2ccc(Cl)cc12 [Example 14, N-[1-(6-Chloro-quinazolin-4-yl)-5-methoxy-2-methyl-1H-indole-3-carbonyl]-guanidine trifluoroacetate] in this work.

An IC50 [1] of 2360 nM and a melting point of 216 °C were found for Cl.N=C(N)NC(=O)c1cn(-c2cc(C(F)(F)F)nc3ccccc23)c2ccccc12 [Example 1, 3-Guanidinocarbonyl-1-(2-(trifluoromethyl)quinol-4-yl)-1H-indole hydrochloride] in this work.

An IC50 [1] of 10 nM was found for NC(N)=NC(=O)c1cn(-c2ccnc3ccc(F)cc23)c2ccccc12 [Example 11, N-[1-(6-Fluoro-quinolin-4-yl)-1H-indole-3-carbonyl]-guanidine trifluoroacetate] in this work.

An IC50 [1] of 1470 nM and a melting point of 212 °C were found for Cl.N=C(N)NC(=O)c1cn(-c2ccnc3c(C(F)(F)F)cccc23)c2ccccc12 [Example 4, 3-Guanidinocarbonyl-1-(8-(trifluoromethyl)quinol-4-yl)-1H-indole hydrochloride] in this work.

An IC50 [1] of 250 nM and a melting point of 238 °C were found for Cl.N=C(N)NC(=O)c1cn(-c2ccnc3cc(C(F)(F)F)ccc23)c2ccccc12 [Example 3, 3-Guanidinocarbonyl-1-(7-(trifluoromethyl)quinol-4-yl)-1H-indole hydrochloride] in this work.
